In PubChem BioAssay AID434987 (Southern Research Specialized Biocontainment Screening …, 2010):
pIC50: −log10 of the molar value. Active and inactive are the calls of the source. The rule behind the calls is not given here.

System: M. tuberculosis H37Rv growth inhibition with meropenem
Experiment: dose response, H37Rv, with and without meropenem (AID 434987);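 note: growth over 7 days at 37 °C before Alamar Blue read on day 9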
[1] = M. tuberculosis H37Rv growth inhibition, measured here: IC50 without meropenem
[2] = M. tuberculosis H37Rv growth inhibition, measured here: IC90 without meropenem
[3] = measured here: IC90 with meropenem

CCc1cc(C(N)=S)ccn1
pIC50: 5.07
pIC50 [1]: 4.23
IC90 [2]: > 100 µM
IC90 [3]: 12.8 µM

CC1CC(C)(C)n2c(O)c(N=NC(N)=S)c3cccc1c32 (stereo unspecified)
IC50: > 100 µM (inactive)
pIC50 [1]: < 4.00
IC90 [2]: > 100 µM
IC90 [3]: > 100 µM

CCOc1ccc2nc(SCC(=O)Nc3nonc3C)[nH]c2c1
pIC50: 4.48
pIC50 [1]: < 4.00
IC90 [2]: > 100 µM
IC90 [3]: > 100 µM

O=C(NN=C1CCCC1)c1cccs1
IC50: 23.6 µM (inactive)
pIC50 [1]: 4.30
IC90 [2]: > 100 µM
IC90 [3]: > 100 µM

O=C1COc2ccc(C(=O)CCl)cc2N1
IC50: 25.7 µM (inactive)
pIC50 [1]: 4.61
IC90 [2]: 27 µM
IC90 [3]: 44.4 µM

COc1cccc(-c2ccc(-c3noc(-c4ccccc4F)n3)c(OC)n2)c1
pIC50: 5.02
pIC50 [1]: < 4.00
IC90 [2]: > 100 µM
IC90 [3]: > 12.5 µM

CCOC(=O)c1sc(NC(=O)Cn2nnc3sc4c(c3c2=O)CCC(C(C)(C)C)C4)nc1C (stereo unspecified)
IC50: 93.7 µM (inactive)
pIC50 [1]: < 4.00
IC90 [2]: > 100 µM
IC90 [3]: > 100 µM

CN(c1ccc(OCC(=O)Nc2ccc3[nH]c(=O)[nH]c3c2)cc1)S(=O)(=O)c1ccc(Cl)cc1
IC50: > 100 µM (inactive)
pIC50 [1]: < 4.00
IC90 [2]: > 100 µM
IC90 [3]: > 100 µM

O=C(Nc1cccc(S(=O)(=O)NCc2ccco2)c1)c1cc(-c2ccc(F)cc2)nc2ccccc12
IC50: 97.4 µM (inactive)
pIC50 [1]: < 4.00
IC90 [2]: > 100 µM
IC90 [3]: > 100 µM

CCOC(=O)/C(C#N)=C/c1ccc(OCC(=O)Nc2ccccc2)c(OC)c1
IC50: 98.4 µM (inactive)
pIC50 [1]: < 4.00
IC90 [2]: > 100 µM
IC90 [3]: > 100 µM

Cc1cc(C)c(N=Cc2c(O)n(-c3nccs3)c(=O)c3ccccc23)c(C)c1
IC50: > 100 µM (inactive)
pIC50 [1]: < 4.00
IC90 [2]: > 100 µM
IC90 [3]: > 100 µM

O=C1C2ON(c3ccc(Br)cc3)C(c3cccnc3)C2C(=O)N1C1CCCCC1 (stereo unspecified)
IC50: > 100 µM (inactive)
pIC50 [1]: < 4.00
IC90 [2]: > 100 µM
IC90 [3]: > 100 µM

Cc1cc(C)c(NC(=O)CC(C)(C)C)c(Cl)c1
IC50: 76.4 µM (inactive)
pIC50 [1]: < 4.00
IC90 [2]: > 100 µM
IC90 [3]: > 100 µM

COc1ccc(C(=O)/C=C/c2cccs2)c(OC(=O)c2cccc([N+](=O)[O-])c2)c1
IC50: 29.5 µM (inactive)
pIC50 [1]: 4.26
IC90 [2]: 85.2 µM
IC90 [3]: > 100 µM

Cc1cc(C)c(-c2c(O)c3ccccc3n(C)c2=O)c(C)c1
pIC50: 5.03
pIC50 [1]: 4.31
IC90 [2]: > 100 µM
IC90 [3]: 42.2 µM

O=C(Nc1ccccc1Cl)c1csc(-c2cccnc2)n1
pIC50: 4.62
pIC50 [1]: 4.08
IC90 [2]: > 100 µM
IC90 [3]: > 100 µM

O=C(O)C1CC(=O)N(c2ccc(OCc3ccccc3Cl)cc2)C1 (stereo unspecified)
pIC50: 4.85
pIC50 [1]: 4.38
IC90 [2]: > 100 µM
IC90 [3]: > 100 µM

CCCc1nc2oc3c(OCC)ncnc3c2c2c1COC(C)(C)C2
IC50: 72.5 µM (inactive)
pIC50 [1]: < 4.00
IC90 [2]: > 100 µM
IC90 [3]: > 100 µM

CO/N=C(\C(=O)N[C@@H]1C(=O)N2C(C(=O)O)=C(COC(C)=O)CS[C@H]12)c1csc(N)n1 (stereo in doubt)
pIC50: 4.99
pIC50 [1]: < 4.00
IC90 [2]: > 100 µM
IC90 [3]: 41.7 µM

CC(C)C(=O)Nc1ccc2c3c(cccc13)CC2
pIC50: 4.71
pIC50 [1]: < 4.00
IC90 [2]: > 100 µM
IC90 [3]: > 100 µM

CCCC(=O)Nc1nc(-c2ccccc2)ns1
IC50: > 100 µM (inactive)
pIC50 [1]: < 4.00
IC90 [2]: > 100 µM
IC90 [3]: > 100 µM

CC(C)NC(=S)NN=C1c2ccccc2-c2ccccc21
IC50: 35.7 µM (inactive)
pIC50 [1]: 4.23
IC90 [2]: > 100 µM
IC90 [3]: > 100 µM

CSc1ccc(/C=C/C(=O)Nc2ccccc2)cc1
IC50: > 100 µM (inactive)
pIC50 [1]: < 4.00
IC90 [2]: > 100 µM
IC90 [3]: > 100 µM

O=C(Cc1cccc2ccccc12)N/N=C/c1ccc(O)c([N+](=O)[O-])c1
IC50: 17.3 µM (inactive)
pIC50 [1]: 4.57
IC90 [2]: 47.2 µM
IC90 [3]: 31.6 µM

O=S1(=O)CCO[C@H]2Cc3ccccc3[C@H]2N1Cc1ccc(Cl)cc1
IC50: > 100 µM (inactive)
pIC50 [1]: < 4.00
IC90 [2]: > 100 µM
IC90 [3]: > 100 µM

Cc1cccc(N2CCN(CC3CCCCC3)CC2)c1C
IC50: 48.5 µM (inactive)
pIC50 [1]: 4.04
IC90 [2]: > 100 µM
IC90 [3]: 53.2 µM

Cc1cc(C(=O)CSc2nnnn2-c2ccccc2)c(C)n1-c1ccc2c(c1)OCO2
IC50: 44.9 µM (inactive)
pIC50 [1]: 4.30
IC90 [2]: > 100 µM
IC90 [3]: 60.9 µM

CCCCN1C(=O)c2ccc(C(=O)Nc3cccc(C)c3C)cc2C1=O
IC50: > 100 µM (inactive)
pIC50 [1]: < 4.00
IC90 [2]: > 100 µM
IC90 [3]: > 100 µM

COc1ccc(NC(=O)c2cc(Br)ccc2Cl)c(OC)c1
pIC50: 4.63
pIC50 [1]: < 4.00
IC90 [2]: > 100 µM
IC90 [3]: > 100 µM

COc1cc(/C=N/NC(N)=S)ccc1OC(=O)c1ccc(C)cc1
IC50: > 100 µM (inactive)
pIC50 [1]: < 4.00
IC90 [2]: > 100 µM
IC90 [3]: > 100 µM

O=C(N/N=C/c1ccc2c(c1)OCO2)c1sc2cc(Cl)ccc2c1Cl
IC50: > 100 µM (inactive)
pIC50 [1]: < 4.00
IC90 [2]: > 100 µM
IC90 [3]: > 100 µM

COc1ccc(NC(=O)C/C(C)=N/NC(=O)c2cnccn2)cc1
pIC50: 4.70
pIC50 [1]: < 4.00
IC90 [2]: > 100 µM
IC90 [3]: > 100 µM

CCC(C)C(NC(N)=O)C(=O)Nc1ccc(OCc2ccccc2)cc1 (stereo unspecified)
IC50: > 100 µM (inactive)
pIC50 [1]: < 4.00
IC90 [2]: > 100 µM
IC90 [3]: > 100 µM

COC(=O)Cn1nc(-c2ccccc2)c2ccccc21
IC50: > 100 µM (inactive)
pIC50 [1]: < 4.00
IC90 [2]: > 100 µM
IC90 [3]: > 100 µM

COC(=O)CN1C(CN2CCOCC2)=Nc2ccc(Br)cc2C1c1ccccc1 (stereo unspecified)
IC50: > 100 µM (inactive)
pIC50 [1]: < 4.00
IC90 [2]: > 100 µM
IC90 [3]: > 100 µM

O=C(COc1ccccc1)NNC(=O)c1cc2ccccc2oc1=O
pIC50: 4.81
pIC50 [1]: < 4.00
IC90 [2]: > 100 µM
IC90 [3]: > 100 µM

CC1(C)CCN2CCC(C)(C)c3c(O)ccc1c32
IC50: 34.7 µM (inactive)
pIC50 [1]: 4.33
IC90 [2]: 53 µM
IC90 [3]: 49.3 µM

CNC(=S)N/N=C1\C(=O)c2cccc3cccc1c23
pIC50: 4.70
pIC50 [1]: < 4.00
IC90 [2]: > 100 µM
IC90 [3]: > 100 µM

COc1ccc(OC)c(NC(=O)CSC2=C(C#N)C(c3ccco3)C3=C(CCCC3=O)N2)c1 (stereo unspecified)
IC50: 70.4 µM (inactive)
pIC50 [1]: 4.03
IC90 [2]: > 100 µM
IC90 [3]: > 100 µM

Cc1cc(C)c(C)c(S(=O)(=O)N2C(=S)NC(=O)C2C(C)C)c1C (stereo unspecified)
pIC50: 5.00
pIC50 [1]: 4.41
IC90 [2]: > 100 µM
IC90 [3]: > 100 µM

OC(COC(c1ccccc1)c1ccccc1)CN1CCN(c2cccc(Cl)c2)CC1 (stereo unspecified)
IC50: 44.6 µM (inactive)
pIC50 [1]: 4.32
IC90 [2]: > 100 µM
IC90 [3]: > 100 µM

Cc1cc(C)c2c(N)c(S(=O)c3ccc(C(C)(C)C)cc3)sc2n1 (stereo unspecified)
IC50: > 100 µM (inactive)
pIC50 [1]: < 4.00
IC90 [2]: > 100 µM
IC90 [3]: > 100 µM

Cc1ccccc1OCC(=O)N/N=C/c1cccc(Oc2ccc([N+](=O)[O-])cc2[N+](=O)[O-])c1
pIC50: 5.94
pIC50 [1]: 5.37
IC90 [2]: 47.8 µM
IC90 [3]: 5.4 µM

N=C1C(c2nc(-c3ccc(Cl)cc3)cs2)=C(O)CN1CCCN1CCOCC1
IC50: > 100 µM (inactive)
pIC50 [1]: < 4.00
IC90 [2]: > 100 µM
IC90 [3]: > 100 µM

Cc1ccc(-n2nnnc2Sc2nc([N+](=O)[O-])nn2C)cc1
pIC50: 4.99
pIC50 [1]: 4.29
IC90 [2]: 93.5 µM
IC90 [3]: > 100 µM

CNC(=O)Nc1cccc(-c2cc(-c3c(Cl)cccc3Cl)no2)c1
IC50: > 100 µM (inactive)
pIC50 [1]: < 4.00
IC90 [2]: > 100 µM
IC90 [3]: > 100 µM

CC1(C)C[C@@H]1C(=O)N/C(=C\CCCCSC[C@H](N)C(=O)O)C(=O)O
IC50: > 100 µM (inactive)
pIC50 [1]: < 4.00
IC90 [2]: > 100 µM
IC90 [3]: > 100 µM

COc1cc(/C=C/C(=O)OCC(=O)Nc2ccc(Cl)cn2)ccc1O
pIC50: 4.40
pIC50 [1]: < 4.00
IC90 [2]: > 100 µM
IC90 [3]: > 100 µM

CCOc1ccc(-c2nnc(-c3ccc(OC)cc3)o2)cc1
pIC50: 5.33
pIC50 [1]: 4.45
IC90 [2]: > 100 µM
IC90 [3]: > 100 µM

c1ccc(CSc2nnc(-c3ccco3)o2)cc1
IC50: > 100 µM (inactive)
pIC50 [1]: < 4.00
IC90 [2]: > 100 µM
IC90 [3]: > 100 µM

O=C1OC(/C=C/c2ccc(Cl)cc2Cl)=NC/1=C\c1cccs1
pIC50: 5.39
pIC50 [1]: 4.83
IC90 [2]: 60.1 µM
IC90 [3]: 33.4 µM

C=C(C)C1Cc2c(C)nn(-c3cccc4ccccc34)c2C1 (stereo unspecified)
pIC50: 4.81
pIC50 [1]: 4.41
IC90 [2]: 58.5 µM
IC90 [3]: 47.4 µM

Cc1noc(/C=C/Nc2ccc(F)cc2F)c1[N+](=O)[O-]
IC50: > 100 µM (inactive)
pIC50 [1]: < 4.00
IC90 [2]: > 100 µM
IC90 [3]: > 100 µM

COc1ccc(/C=C2\N=C(SC)N(c3ccccc3OC)C2=O)cc1
pIC50: 4.74
pIC50 [1]: < 4.00
IC90 [2]: > 100 µM
IC90 [3]: > 25 µM

CCCn1nc(NC(=O)c2ccco2)c2cc3cc(C)ccc3nc21
IC50: > 100 µM (inactive)
pIC50 [1]: < 4.00
IC90 [2]: > 100 µM
IC90 [3]: > 100 µM

Cc1cccc(/C=N\NC(=O)c2csnn2)c1
pIC50: 4.40
pIC50 [1]: < 4.00
IC90 [2]: > 100 µM
IC90 [3]: > 100 µM

CN(C)c1ccc(N=Nc2cccc3ccoc23)cc1
IC50: > 100 µM (inactive)
pIC50 [1]: < 4.00
IC90 [2]: > 100 µM
IC90 [3]: > 100 µM

O=C1/C(=C/c2ccncc2)CCc2ccccc21
IC50: 16.8 µM (inactive)
pIC50 [1]: 4.61
IC90 [2]: 36.4 µM
IC90 [3]: 29.1 µM

COc1cccc(-c2nnn(CC(=O)Nc3cc(OC)c(NC(=O)c4ccco4)cc3OC)n2)c1
pIC50: 4.51
pIC50 [1]: < 4.00
IC90 [2]: > 100 µM
IC90 [3]: > 100 µM
